Laboratory results as given in US20250152685A1, “METHOD OF MAKING A PERSONALIZED CANCER VACCINE” (FLOW PHARMA, INC., priority 2019, published 2025).

Molecular target: DRB3*0202 (Homo sapiens, UniProt P01903+P79483, A212P/D57E/F66Y/L67A/R103Q/R218S/R40L/S89Y/T80R/V86D/Y55F/Y59H)
Test: peptide affinity binding assay (in-vitro peptide-MHC binding affinity)
Conditions: PADRE and DRB3*0202

Chain of DRB3*0202 (P01903 26-254 limits assumed): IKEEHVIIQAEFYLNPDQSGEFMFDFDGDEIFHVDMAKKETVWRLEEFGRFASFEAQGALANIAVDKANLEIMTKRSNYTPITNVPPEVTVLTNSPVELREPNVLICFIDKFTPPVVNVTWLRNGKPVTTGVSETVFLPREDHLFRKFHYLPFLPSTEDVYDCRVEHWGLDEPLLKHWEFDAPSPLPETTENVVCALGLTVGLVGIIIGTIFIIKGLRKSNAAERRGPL
Chain of DRB3*0202 (P79483 30-266 R40L/Y55F/D57E/Y59H/F66Y/L67A/T80R/V86D/S89Y/R103Q/A212P/R218S limits assumed): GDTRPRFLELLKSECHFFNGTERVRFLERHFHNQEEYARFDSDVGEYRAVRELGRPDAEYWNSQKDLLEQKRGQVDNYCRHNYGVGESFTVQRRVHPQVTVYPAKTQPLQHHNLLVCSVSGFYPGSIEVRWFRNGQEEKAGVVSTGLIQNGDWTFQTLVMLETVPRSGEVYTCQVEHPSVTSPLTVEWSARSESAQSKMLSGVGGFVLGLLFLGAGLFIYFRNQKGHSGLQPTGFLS

CC(C)C[C@H](NC(=O)[C@@H](NC(=O)[C@H](Cc1c[nH]c2ccccc12)NC(=O)[C@H](C)NC(=O)[C@H](C)NC(=O)[C@@H](NC(=O)[C@H](Cc1ccccc1)NC(=O)[C@H](CCCCN)NC(=O)[C@H](C)N)C(C)C)[C@@H](C)O)C(=O)N[C@@H](CCCCN)C(=O)N[C@@H](C)C(=O)N[C@@H](C)C(=O)N[C@@H](C)C(=O)O [PADRE]
peptide-MHC binding affinity before and after the addition of an infrared fluorophore ligand: essentially unchanged
